Active and inactive are the calls of the source.
Key:
Activin receptor type-2B = Activin receptor type-2B (Homo sapiens, UniProt Q13705)
[1] = target: T1, Adenine phosphoribosyltransferase (Homo sapiens, UniProt P07741)
T1 sequence (P07741 whole entry): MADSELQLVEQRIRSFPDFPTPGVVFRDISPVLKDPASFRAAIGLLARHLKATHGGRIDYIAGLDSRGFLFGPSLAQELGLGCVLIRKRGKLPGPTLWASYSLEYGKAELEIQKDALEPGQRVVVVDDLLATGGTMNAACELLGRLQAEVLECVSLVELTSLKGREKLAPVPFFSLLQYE

Aurora kinase B = Aurora kinase B (Homo sapiens, UniProt Q96GD4)
Sequence of Aurora kinase B (Q96GD4 whole entry): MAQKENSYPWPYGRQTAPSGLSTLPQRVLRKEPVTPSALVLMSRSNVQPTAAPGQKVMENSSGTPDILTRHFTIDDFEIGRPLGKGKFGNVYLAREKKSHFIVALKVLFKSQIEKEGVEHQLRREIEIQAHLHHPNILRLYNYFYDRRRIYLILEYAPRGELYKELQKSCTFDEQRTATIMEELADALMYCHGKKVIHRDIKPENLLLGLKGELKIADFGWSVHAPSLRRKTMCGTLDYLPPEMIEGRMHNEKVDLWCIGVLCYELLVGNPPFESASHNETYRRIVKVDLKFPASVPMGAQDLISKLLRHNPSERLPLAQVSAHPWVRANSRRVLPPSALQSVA

[2] = target: Tyrosine-protein kinase HCK (Homo sapiens, UniProt P08631)
Sequence of Tyrosine-protein kinase HCK (P08631 whole entry, the tested form may be a part): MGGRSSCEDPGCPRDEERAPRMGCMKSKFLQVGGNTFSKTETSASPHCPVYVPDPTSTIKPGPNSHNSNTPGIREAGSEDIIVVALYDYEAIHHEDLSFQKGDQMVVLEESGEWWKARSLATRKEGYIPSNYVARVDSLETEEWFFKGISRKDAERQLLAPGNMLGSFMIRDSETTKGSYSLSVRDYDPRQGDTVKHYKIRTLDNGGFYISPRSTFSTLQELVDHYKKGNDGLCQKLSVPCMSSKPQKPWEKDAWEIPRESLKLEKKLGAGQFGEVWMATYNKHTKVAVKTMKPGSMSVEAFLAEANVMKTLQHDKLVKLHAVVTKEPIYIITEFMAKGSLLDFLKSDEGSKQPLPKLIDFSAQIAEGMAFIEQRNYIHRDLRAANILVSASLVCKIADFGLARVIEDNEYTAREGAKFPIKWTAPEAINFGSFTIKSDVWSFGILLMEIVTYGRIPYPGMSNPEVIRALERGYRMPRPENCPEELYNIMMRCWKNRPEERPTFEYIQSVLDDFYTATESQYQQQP

LIM domain kinase 1 = LIM domain kinase 1 (Homo sapiens, UniProt P53667)
Sequence of LIM domain kinase 1 (P53667 whole entry, the tested form may be a part): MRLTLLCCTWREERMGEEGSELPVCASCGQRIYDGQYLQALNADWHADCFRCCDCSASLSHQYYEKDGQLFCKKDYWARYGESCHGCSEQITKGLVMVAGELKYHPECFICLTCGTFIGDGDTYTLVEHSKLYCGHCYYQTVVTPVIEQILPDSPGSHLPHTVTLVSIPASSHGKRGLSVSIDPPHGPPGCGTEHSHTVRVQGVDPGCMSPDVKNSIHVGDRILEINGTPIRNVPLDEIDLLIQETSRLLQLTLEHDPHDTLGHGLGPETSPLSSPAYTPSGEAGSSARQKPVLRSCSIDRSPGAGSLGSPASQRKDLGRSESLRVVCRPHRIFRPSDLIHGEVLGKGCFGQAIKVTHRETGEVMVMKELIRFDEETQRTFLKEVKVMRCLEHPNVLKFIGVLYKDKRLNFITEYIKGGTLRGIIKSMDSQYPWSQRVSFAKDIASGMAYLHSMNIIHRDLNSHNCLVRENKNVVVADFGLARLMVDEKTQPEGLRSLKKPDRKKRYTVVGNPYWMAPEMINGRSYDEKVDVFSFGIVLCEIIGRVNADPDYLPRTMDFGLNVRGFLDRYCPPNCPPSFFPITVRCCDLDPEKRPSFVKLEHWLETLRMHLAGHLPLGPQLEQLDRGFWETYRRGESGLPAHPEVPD

LIM domain kinase 2 = LIM domain kinase 2 (Homo sapiens, UniProt P53671)
Sequence of LIM domain kinase 2 (P53671 whole entry, the tested form may be a part): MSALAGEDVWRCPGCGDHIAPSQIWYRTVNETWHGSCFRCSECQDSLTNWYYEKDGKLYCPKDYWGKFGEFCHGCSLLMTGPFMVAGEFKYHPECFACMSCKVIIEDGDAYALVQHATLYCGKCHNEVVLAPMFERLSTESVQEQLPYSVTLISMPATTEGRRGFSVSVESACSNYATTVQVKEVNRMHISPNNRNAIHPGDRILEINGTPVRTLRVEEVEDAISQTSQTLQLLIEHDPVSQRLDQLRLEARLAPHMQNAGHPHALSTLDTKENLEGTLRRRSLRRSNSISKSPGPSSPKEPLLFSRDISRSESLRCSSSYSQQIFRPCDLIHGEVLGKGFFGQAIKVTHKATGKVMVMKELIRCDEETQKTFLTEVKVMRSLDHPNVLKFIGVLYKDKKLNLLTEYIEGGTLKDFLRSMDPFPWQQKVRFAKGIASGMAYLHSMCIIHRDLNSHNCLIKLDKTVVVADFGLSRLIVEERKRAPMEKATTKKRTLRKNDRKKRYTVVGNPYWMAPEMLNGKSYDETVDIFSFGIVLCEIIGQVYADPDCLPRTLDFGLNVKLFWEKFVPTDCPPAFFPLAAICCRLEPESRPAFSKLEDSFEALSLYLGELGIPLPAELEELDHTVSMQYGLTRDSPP

[3] = target: T2, Mitogen-activated protein kinase kinase kinase kinase 3 (Homo sapiens, UniProt Q8IVH8)
T2 sequence (Q8IVH8 whole entry): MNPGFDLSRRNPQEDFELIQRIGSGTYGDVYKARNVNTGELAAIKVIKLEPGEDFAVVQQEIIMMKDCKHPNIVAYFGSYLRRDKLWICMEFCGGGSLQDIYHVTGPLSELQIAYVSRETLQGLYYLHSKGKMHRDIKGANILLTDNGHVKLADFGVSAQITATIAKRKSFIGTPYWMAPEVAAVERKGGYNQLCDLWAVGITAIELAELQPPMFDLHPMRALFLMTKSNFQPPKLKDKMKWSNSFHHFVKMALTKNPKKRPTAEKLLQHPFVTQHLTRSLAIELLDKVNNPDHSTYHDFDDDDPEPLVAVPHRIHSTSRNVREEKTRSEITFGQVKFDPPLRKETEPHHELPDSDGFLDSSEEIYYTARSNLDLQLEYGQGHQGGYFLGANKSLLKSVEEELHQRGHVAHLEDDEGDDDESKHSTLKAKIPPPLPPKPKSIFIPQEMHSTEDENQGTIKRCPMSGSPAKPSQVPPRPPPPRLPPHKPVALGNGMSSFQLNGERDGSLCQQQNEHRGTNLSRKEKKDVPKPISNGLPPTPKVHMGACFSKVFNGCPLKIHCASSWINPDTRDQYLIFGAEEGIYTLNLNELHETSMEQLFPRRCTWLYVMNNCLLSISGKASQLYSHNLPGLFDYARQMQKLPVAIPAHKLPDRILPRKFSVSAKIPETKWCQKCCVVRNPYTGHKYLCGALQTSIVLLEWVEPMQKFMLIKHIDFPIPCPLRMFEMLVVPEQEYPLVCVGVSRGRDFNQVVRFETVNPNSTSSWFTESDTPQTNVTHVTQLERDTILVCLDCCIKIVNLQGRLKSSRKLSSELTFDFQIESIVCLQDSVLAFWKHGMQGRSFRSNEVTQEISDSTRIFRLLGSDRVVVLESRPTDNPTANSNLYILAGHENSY

[4] = target: Mitogen-activated protein kinase 11 (Homo sapiens, UniProt Q15759)
Sequence of Mitogen-activated protein kinase 11 (Q15759 whole entry): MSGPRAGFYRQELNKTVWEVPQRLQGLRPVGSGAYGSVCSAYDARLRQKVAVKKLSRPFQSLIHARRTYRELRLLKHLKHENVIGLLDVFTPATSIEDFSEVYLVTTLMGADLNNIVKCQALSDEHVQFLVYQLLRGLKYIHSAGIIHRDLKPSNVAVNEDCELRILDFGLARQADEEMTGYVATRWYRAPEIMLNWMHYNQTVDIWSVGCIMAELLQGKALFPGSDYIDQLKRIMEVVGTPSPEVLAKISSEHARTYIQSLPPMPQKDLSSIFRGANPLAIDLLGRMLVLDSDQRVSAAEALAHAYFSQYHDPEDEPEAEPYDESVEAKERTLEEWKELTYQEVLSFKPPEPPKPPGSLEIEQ

[5] = target: Mitogen-activated protein kinase 7 (Homo sapiens, UniProt Q13164)
[6] = target: Mitogen-activated protein kinase 8 (Homo sapiens, UniProt P45983)
Sequence of Mitogen-activated protein kinase 8 (P45983 whole entry): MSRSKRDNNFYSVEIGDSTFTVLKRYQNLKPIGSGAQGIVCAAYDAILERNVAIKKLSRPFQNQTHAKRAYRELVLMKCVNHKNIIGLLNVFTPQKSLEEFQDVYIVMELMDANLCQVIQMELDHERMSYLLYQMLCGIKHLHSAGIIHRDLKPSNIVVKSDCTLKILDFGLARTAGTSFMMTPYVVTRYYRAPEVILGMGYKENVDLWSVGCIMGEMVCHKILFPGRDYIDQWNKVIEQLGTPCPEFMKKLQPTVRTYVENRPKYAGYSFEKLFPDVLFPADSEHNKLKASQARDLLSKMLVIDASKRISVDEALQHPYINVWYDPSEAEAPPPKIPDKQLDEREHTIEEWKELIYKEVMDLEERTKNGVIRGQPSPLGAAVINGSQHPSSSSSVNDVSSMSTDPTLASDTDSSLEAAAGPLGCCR

[7] = target: 5'-AMP-activated protein kinase catalytic subunit alpha-1 (Homo sapiens, UniProt Q13131)
[8] = target: Protein-tyrosine kinase 6 (Homo sapiens, UniProt Q13882)
[9] = target: T3, Succinate--CoA ligase [ADP-forming] subunit beta, mitochondrial (Homo sapiens, UniProt Q9P2R7)
T3 sequence (Q9P2R7 whole entry): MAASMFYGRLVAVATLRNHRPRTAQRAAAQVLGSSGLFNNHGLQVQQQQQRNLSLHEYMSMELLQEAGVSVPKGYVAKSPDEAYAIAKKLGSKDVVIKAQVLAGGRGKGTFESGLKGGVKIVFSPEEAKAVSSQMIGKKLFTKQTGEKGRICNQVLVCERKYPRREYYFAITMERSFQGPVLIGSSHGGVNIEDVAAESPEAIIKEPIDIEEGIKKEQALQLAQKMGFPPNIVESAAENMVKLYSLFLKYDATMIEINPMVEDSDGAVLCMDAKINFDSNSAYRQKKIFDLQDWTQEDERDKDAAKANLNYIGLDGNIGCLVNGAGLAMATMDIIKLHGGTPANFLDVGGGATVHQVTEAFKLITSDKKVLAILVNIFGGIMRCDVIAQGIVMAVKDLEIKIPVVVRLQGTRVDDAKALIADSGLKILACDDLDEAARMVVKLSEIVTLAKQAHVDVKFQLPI

GTP-binding protein 4 = GTP-binding protein 4 (Homo sapiens, UniProt Q9BZE4)
[10] = target: PAS domain-containing serine/threonine-protein kinase (Homo sapiens, UniProt Q96RG2)
Sequence of PAS domain-containing serine/threonine-protein kinase (Q96RG2 whole entry, the tested form may be a part): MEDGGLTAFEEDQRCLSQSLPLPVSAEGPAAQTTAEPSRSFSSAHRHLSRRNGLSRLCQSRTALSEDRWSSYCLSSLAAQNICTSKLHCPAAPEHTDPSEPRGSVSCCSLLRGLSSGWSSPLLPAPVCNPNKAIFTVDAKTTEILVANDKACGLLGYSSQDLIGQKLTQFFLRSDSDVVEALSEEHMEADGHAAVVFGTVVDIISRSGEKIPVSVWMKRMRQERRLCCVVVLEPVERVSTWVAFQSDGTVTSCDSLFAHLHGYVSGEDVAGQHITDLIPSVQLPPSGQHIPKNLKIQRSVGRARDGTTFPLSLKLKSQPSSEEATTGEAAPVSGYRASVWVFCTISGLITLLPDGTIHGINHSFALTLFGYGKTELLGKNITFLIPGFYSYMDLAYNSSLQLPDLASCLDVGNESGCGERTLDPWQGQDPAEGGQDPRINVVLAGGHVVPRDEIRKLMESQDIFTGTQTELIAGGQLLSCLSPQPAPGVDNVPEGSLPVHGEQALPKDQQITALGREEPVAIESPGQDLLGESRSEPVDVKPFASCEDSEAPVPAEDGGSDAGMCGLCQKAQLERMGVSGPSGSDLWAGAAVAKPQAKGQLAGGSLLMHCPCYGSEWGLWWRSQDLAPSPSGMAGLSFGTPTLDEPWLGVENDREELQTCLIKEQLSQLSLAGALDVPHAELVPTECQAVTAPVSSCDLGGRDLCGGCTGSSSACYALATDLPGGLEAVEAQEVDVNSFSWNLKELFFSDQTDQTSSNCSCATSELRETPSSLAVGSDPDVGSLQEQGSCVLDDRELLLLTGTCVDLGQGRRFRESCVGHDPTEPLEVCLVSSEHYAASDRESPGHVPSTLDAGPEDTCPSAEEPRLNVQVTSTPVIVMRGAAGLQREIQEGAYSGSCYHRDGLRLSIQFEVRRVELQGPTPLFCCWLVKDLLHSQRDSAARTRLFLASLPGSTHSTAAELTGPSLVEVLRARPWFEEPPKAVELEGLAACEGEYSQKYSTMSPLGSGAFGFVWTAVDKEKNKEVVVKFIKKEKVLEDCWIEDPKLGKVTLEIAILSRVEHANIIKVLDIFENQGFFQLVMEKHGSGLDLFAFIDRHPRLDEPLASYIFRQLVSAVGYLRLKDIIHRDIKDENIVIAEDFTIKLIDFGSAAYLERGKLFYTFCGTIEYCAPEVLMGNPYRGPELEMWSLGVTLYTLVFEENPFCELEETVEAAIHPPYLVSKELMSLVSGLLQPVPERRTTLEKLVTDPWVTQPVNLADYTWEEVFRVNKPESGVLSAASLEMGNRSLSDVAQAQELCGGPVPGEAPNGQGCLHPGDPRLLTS

[11] = target: T4, Phosphatidylinositol 5-phosphate 4-kinase type-2 alpha (Homo sapiens, UniProt P48426)
T4 sequence (P48426 whole entry): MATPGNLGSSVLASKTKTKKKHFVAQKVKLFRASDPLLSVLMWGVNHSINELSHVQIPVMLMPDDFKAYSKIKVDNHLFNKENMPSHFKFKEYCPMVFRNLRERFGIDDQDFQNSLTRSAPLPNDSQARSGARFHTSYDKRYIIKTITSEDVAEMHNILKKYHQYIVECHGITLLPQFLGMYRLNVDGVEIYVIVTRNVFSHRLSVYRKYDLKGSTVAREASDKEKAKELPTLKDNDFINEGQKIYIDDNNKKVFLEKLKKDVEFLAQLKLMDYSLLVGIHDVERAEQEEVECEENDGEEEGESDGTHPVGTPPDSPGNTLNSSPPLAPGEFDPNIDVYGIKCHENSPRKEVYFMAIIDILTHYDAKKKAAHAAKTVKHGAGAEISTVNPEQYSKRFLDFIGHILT
Also: in the data inactive means no Kd found up to 30 µM.

Sequence of Activin receptor type-2B (Q13705 whole entry): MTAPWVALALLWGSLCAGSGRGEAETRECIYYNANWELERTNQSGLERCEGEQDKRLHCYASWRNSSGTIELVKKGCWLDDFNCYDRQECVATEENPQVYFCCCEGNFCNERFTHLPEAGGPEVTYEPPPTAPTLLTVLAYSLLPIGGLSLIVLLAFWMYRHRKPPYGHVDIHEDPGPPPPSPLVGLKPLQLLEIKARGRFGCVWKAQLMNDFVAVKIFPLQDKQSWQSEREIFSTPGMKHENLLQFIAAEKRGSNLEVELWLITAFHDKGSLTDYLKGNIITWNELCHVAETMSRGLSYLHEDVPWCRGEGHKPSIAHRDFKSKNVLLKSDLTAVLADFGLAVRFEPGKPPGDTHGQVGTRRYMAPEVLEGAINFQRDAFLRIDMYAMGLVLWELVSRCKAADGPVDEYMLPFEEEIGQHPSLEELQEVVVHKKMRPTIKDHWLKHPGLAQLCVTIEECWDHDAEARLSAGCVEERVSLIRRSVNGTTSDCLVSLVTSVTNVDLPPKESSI

Kd (Activin receptor type-2B) | Kd [1] | Kd (Aurora kinase B) | Kd [2] | Kd (LIM domain kinase 1) | Kd (LIM domain kinase 2) | Kd [3] | Kd [4] | Kd [5] | Kd [7] | Kd [9] | Kd (GTP-binding protein 4) | Kd [10] | Kd [11] | SMILES | Kd [6] | Kd [8]
> 30 µM (inactive) | > 30 µM (inactive) | 1.15 µM (active) | > 30 µM (inactive) | > 30 µM (inactive) | > 30 µM (inactive) | 3.22 µM | > 30 µM (inactive) | > 30 µM (inactive) | 3.27 µM (active) | > 30 µM (inactive) |  |  |  | C[C@H]1CNCCCN1S(=O)(=O)c1cccc2cncc(F)c12 | > 30 µM (inactive) | > 30 µM (inactive)
> 30 µM (inactive) | > 30 µM (inactive) |  |  |  | > 30 µM (inactive) | > 30 µM (inactive) | > 30 µM (inactive) | > 30 µM (inactive) |  | > 30 µM (inactive) | > 30 µM (inactive) | > 30 µM (inactive) | > 30 µM (inactive) | COc1cc(Nc2ncc3c(n2)-c2ccc(Cl)cc2C(c2c(F)cccc2OC)=NC3)ccc1C(=O)O [ALISERTIB] |  | 
 | > 30 µM (inactive) |  |  |  |  |  |  |  |  | > 30 µM (inactive) | > 30 µM (inactive) | > 30 µM (inactive) | > 30 µM (inactive) | CNC(=O)c1ccccc1Sc1ccc2c(/C=C/c3ccccn3)n[nH]c2c1 [AXITINIB] |  | 
> 30 µM (inactive) | > 30 µM (inactive) |  |  |  |  |  |  |  |  | > 30 µM (inactive) | > 30 µM (inactive) | > 30 µM (inactive) | > 30 µM (inactive) | C[C@@H](Oc1cc(-n2cnc3ccc(CN4CCN(C)CC4)cc32)sc1C(N)=O)c1ccccc1C(F)(F)F [GSK-461364] |  | 
> 30 µM (inactive) | > 30 µM (inactive) | 22.9 µM (active) | > 30 µM (inactive) | > 30 µM (inactive) | > 30 µM (inactive) | > 30 µM (inactive) | > 30 µM (inactive) | > 30 µM (inactive) | > 30 µM (inactive) | > 30 µM (inactive) | > 30 µM (inactive) |  | > 30 µM (inactive) | CNC(=O)c1cccc2cc(Oc3ccnc4cc(OCC5(N)CC5)c(OC)cc34)ccc12 [LUCITANIB] | > 30 µM (inactive) | > 30 µM (inactive)
> 30 µM (inactive) |  |  |  |  | > 30 µM (inactive) |  | > 30 µM (inactive) | > 30 µM (inactive) |  |  | > 30 µM (inactive) | > 30 µM (inactive) | > 30 µM (inactive) | Cc1[nH]c(/C=C2\C(=O)Nc3ccccc32)c(C)c1CCC(=O)O [ORANTINIB] |  | 
> 30 µM (inactive) | > 30 µM (inactive) |  | > 30 µM (inactive) |  | > 30 µM (inactive) |  | > 30 µM (inactive) |  |  | > 30 µM (inactive) | > 30 µM (inactive) | > 30 µM (inactive) | > 30 µM (inactive) | NC(=O)c1c(OCc2c(F)cc(Br)cc2F)nsc1NC(=O)NCCCCN1CCCC1 [OSI-632] |  | 
> 30 µM (inactive) | > 30 µM (inactive) | 0.02 µM (active) | > 30 µM (inactive) |  | > 30 µM (inactive) | 0.766 µM (active) | > 30 µM (inactive) | 2.96 µM |  |  |  | > 30 µM (inactive) | > 30 µM (inactive) | CC(=O)NCC(=O)N1[C@@H]2CC[C@H]1c1ccc(Nc3ncc(C(F)(F)F)c(NC4CCC4)n3)cc12 [PF-03814735] |  | 
 | > 30 µM (inactive) |  |  |  |  |  |  |  |  | > 30 µM (inactive) | > 30 µM (inactive) | > 30 µM (inactive) | > 30 µM (inactive) | O=C(NOCCO)c1cc(CN2OCCCC2=O)c(F)c(F)c1Nc1ccc(I)cc1F [RO-4987655] |  | 
 |  |  |  |  |  |  |  |  |  | > 30 µM (inactive) | > 30 µM (inactive) | > 30 µM (inactive) | > 30 µM (inactive) | N#CC[C@H](C1CCCC1)n1cc(-c2ncnc3[nH]ccc23)cn1 [RUXOLITINIB] |  | 
> 30 µM (inactive) |  | > 30 µM (inactive) | > 30 µM (inactive) | > 30 µM (inactive) | > 30 µM (inactive) | > 30 µM (inactive) | > 30 µM (inactive) |  | > 30 µM (inactive) | > 30 µM (inactive) | > 30 µM (inactive) |  | > 30 µM (inactive) | Cn1ncc(Cl)c1-c1cc(C(=O)N[C@H](CN)Cc2ccc(F)c(F)c2)oc1Cl [UPROSERTIB] | > 30 µM (inactive) | > 30 µM (inactive)

SMILES | Kd (Activin receptor type-2B) | Kd [1] | Kd (Aurora kinase B) | Kd [2] | Kd (LIM domain kinase 1) | Kd (LIM domain kinase 2) | Kd [3] | Kd [4] | Kd [5] | Kd [7] | Kd [9] | Kd (GTP-binding protein 4) | Kd [10] | Kd [11] | Kd [6] | Kd [8]
NC(=O)Nc1cc(-c2cccc(F)c2)sc1C(=O)N[C@H]1CCCNC1 [AZD-7762] | 0.253 µM (active) | > 30 µM (inactive) | 0.715 µM (active) | 0.103 µM (active) | > 30 µM (inactive) | > 30 µM (inactive) | 0.363 µM (active) | > 30 µM (inactive) | > 30 µM (inactive) | 0.762 µM (active) |  | > 30 µM (inactive) | > 30 µM (inactive) | > 30 µM (inactive) | > 30 µM (inactive) | 1.37 µM (active)
CC(C)(C)c1nc(-c2cccc(NS(=O)(=O)c3c(F)cccc3F)c2F)c(-c2ccnc(N)n2)s1 [DABRAFENIB] | > 30 µM (inactive) | > 30 µM (inactive) | > 30 µM (inactive) | 1.65 µM | 0.033 µM (active) | 0.082 µM (active) | > 30 µM (inactive) | > 30 µM (inactive) | > 30 µM (inactive) |  |  | > 30 µM (inactive) | > 30 µM (inactive) | > 30 µM (inactive) | > 30 µM (inactive) | 1.41 µM (active)
Cn1cc(C2=C(c3cn(C4CCN(Cc5ccccn5)CC4)c4ccccc34)C(=O)NC2=O)c2ccccc21 [ENZASTAURIN] |  | > 30 µM (inactive) |  |  |  |  |  |  |  |  | > 30 µM (inactive) | > 30 µM (inactive) |  | > 30 µM (inactive) |  | 
O=C(Nc1cc(C(F)(F)F)cc(C(F)(F)F)c1)c1cc(Cl)ccc1O [IMD-0354] | > 30 µM (inactive) |  | > 30 µM (inactive) | > 30 µM (inactive) |  | > 30 µM (inactive) | > 30 µM (inactive) | > 30 µM (inactive) | > 30 µM (inactive) |  | > 30 µM (inactive) | > 30 µM (inactive) |  | > 30 µM (inactive) | > 30 µM (inactive) | > 30 µM (inactive)

— ChEMBL document CHEMBL3991601, “The target landscape of clinical kinase drugs” (Science, 2017)
